Test results: US20240000806A1, “METHODS AND MATERIALS FOR INHIBITING CB1 ACTIVITY” (University of Pittsburgh - Of the Commonwealth System of …, priority 2020, published 2024)
pIC50: −log10 of the molar value.

molecular target: CB1 (CNR1) (Homo sapiens, UniProt P21554); assay: cAMP CNR1 Hunter cell line antagonist assay (CB1 assay); type: cell-based; details: antagonist mode, cAMP CNR1 Hunter cells, EC80 agonist; read-out: CB1 assay, Efficacy (IC50)
In short: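 Antagonist mode in CNR1 Hunter cells: compound preincubated 30 min at 37 °C, then EC80 agonist for 30 min at 37 °C. cAMP measured by enzyme-fragment complementation chemiluminescence after lysis (1 h) and detection (3 h, room temperature); IC50 fitted from the dose response.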

Chain of CB1 (CNR1) (P21554 whole entry, the tested form may be a part): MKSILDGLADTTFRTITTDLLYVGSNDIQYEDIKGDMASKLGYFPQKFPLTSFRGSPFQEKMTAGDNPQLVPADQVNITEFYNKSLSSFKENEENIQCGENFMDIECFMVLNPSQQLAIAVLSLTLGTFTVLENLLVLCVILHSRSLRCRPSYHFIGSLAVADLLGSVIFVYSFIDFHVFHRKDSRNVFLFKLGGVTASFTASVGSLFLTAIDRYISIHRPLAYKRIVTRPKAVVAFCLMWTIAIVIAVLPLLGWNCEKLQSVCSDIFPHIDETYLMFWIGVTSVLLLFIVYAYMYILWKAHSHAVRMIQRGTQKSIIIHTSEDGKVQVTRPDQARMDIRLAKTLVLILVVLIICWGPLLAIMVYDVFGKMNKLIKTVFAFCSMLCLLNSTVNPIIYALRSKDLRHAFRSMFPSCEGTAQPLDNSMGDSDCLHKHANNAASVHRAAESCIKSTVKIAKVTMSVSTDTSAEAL

Compound | pIC50
CC(C)NS(=O)(=O)c1cc(Cl)cc2c1OC(C)C(=O)N2 (stereo not drawn) [BC19293] | ≤ 4.60
Cc1ccc(NS(=O)(=O)c2cc(Br)cc3c2OCCNC3=O)cc1F [BC19552] | ≤ 4.60
O=C1CCOc2c(cc(Br)cc2S(=O)(=O)Nc2ccc(Cl)cc2)N1 [BC19685] | ≤ 4.60
CC(C)NS(=O)(=O)c1cc2c(cc1Cl)NC(=O)C(C)O2 (stereo not drawn) [BC19207] | ≤ 4.60
CS(=O)(=O)c1cc2c(c(S(=O)(=O)Nc3ccc(C#N)cc3)c1)OCC(=O)N2 [BC19431] | ≤ 4.60
CCc1ccc(NS(=O)(=O)c2cc(S(C)(=O)=O)cc3c2OCC(=O)N3)cc1 [BC19484] | ≤ 4.60
O=C1COc2cc(S(=O)(=O)Nc3ccc(C(F)(F)F)cc3Cl)c(Br)cc2N1 [BC19390] | ≤ 4.60
CC1Oc2c(cc(Br)cc2S(=O)(=O)Nc2ccc(Cl)cc2)N(C)C1=O (stereo not drawn) [BC19791] | ≤ 4.60
Cc1ccc(NS(=O)(=O)c2cc3c(cc2Br)NC(=O)CCO3)cc1Cl [BC19659] | ≤ 4.60
O=C1CCOc2cc(S(=O)(=O)Nc3ccc(F)cc3)c(Br)cc2N1 [BC19660] | ≤ 4.60
CC(C)CC1Oc2cc(S(=O)(=O)Nc3ccc(F)cc3F)c(Br)cc2NC1=O (stereo not drawn) [BC19770] | ≤ 4.60
CCc1cccc(NS(=O)(=O)c2cc(Cl)cc3c2OC(CC)C(=O)N3)c1 (stereo not drawn) [BC19750] | ≤ 4.60
COc1ccc(NS(=O)(=O)c2cc(Br)cc3c2OCCNC3=O)cc1Cl [BC19614] | ≤ 4.60
O=C1COc2c(cc(Br)cc2S(=O)(=O)NCc2ccc(OC(F)(F)F)cc2)N1 [BC19385] | ≤ 4.60
CCS(=O)(=O)c1cc2c(c(S(=O)(=O)Nc3ccccc3)c1)OCC(=O)N2 [BC19437] | ≤ 4.60
CCc1ccc(NS(=O)(=O)c2cc(Br)cc3c2OC(CC)C(=O)N3C)cc1 (stereo not drawn) [BC19931] | ≤ 4.60
CC1Oc2c(cc(Cl)cc2S(=O)(=O)Nc2ccc(OC(F)(F)F)cc2)NC1=O (stereo not drawn) [BC19394] | ≤ 4.60
CCC1Oc2cc(S(=O)(=O)Nc3cccc(SC)c3)c(Cl)cc2NC1=O (stereo not drawn) [BC19213] | ≤ 4.60
CCOc1ccc(NS(=O)(=O)c2cc(Br)cc3c2OCC(=O)N3)cc1 [BC19173] | ≤ 4.60
CNC(=O)N1c2cc(S(=O)(=O)N3CCCC3)ccc2NC(=O)C1C (stereo not drawn) [BC19236] | ≤ 4.60

Compound | pIC50
CCc1cccc(NS(=O)(=O)c2cc3c(cc2Br)N(C)C(=O)C(C)O3)c1 (stereo not drawn) [BC19901] | ≤ 4.60
CCC1Oc2cc(S(=O)(=O)Nc3ccc(C)cc3)c(Br)cc2NC1=O (stereo not drawn) [BC19224] | ≤ 4.60
Cc1c(Cl)cc2c(c1S(=O)(=O)Nc1ccc(Cl)cc1)OCC(=O)N2 [BC19434] | ≤ 4.60
CC1Oc2cc(S(=O)(=O)N3CCN(C)CC3)c(Br)cc2NC1=O (stereo not drawn) [BC19219] | ≤ 4.60
CC(C)CC1Oc2cc(S(=O)(=O)Nc3cccc(Cl)c3)c(Br)cc2NC1=O (stereo not drawn) [BC19776] | ≤ 4.60
CCC1Oc2cc(S(=O)(=O)Nc3ccc(Cl)cc3)c(Br)cc2N(C)C1=O (stereo not drawn) [BC19930] | ≤ 4.60
O=C1COc2c(cc(Cl)cc2S(=O)(=O)Nc2ccc(OC(F)(F)F)cc2)N1 [BC19172] | ≤ 4.60
CC1Oc2cc(S(=O)(=O)NC3CCC(O)CC3)c(Br)cc2NC1=O (stereo not drawn) [BC19360] | ≤ 4.60
O=C1NCCOc2c1cc(Br)cc2S(=O)(=O)Nc1cccc(Cl)c1 [BC19611] | ≤ 4.60
CC1Nc2cc(S(=O)(=O)N3CCCC3)ccc2NC1=O (stereo not drawn) [BC19235] | ≤ 4.60
CCS(=O)(=O)c1cc2c(c(S(=O)(=O)Nc3ccc(C#N)cc3)c1)OCC(=O)N2 [BC19548] | ≤ 4.60
CS(=O)(=O)c1cc2c(c(S(=O)(=O)Nc3cccc(Cl)c3)c1)OCC(=O)N2 [BC19427] | ≤ 4.60
CC1Oc2cc(S(=O)(=O)N3CCCC3)c(Cl)cc2NC1=O (stereo not drawn) [BC19208] | ≤ 4.60
CCC1Oc2cc(S(=O)(=O)Nc3ccc(Cl)cc3)c(Br)cc2NC1=O (stereo not drawn) [BC19286] | ≤ 4.60
CC1Oc2cc(S(=O)(=O)Nc3ccc(F)cc3)c(Br)cc2N(C)C1=O (stereo not drawn) [BC19910] | ≤ 4.60
O=C1CCOc2c(cc(Br)cc2S(=O)(=O)Nc2cccc(F)c2)N1 [BC19649] | ≤ 4.60
CCC1Oc2c(cc(Br)cc2S(=O)(=O)NCc2ccc(F)cc2F)NC1=O (stereo not drawn) [BC19374] | ≤ 4.60
CC1Oc2c(cc(Br)cc2S(=O)(=O)Nc2ccc(F)cc2Cl)N(C)C1=O (stereo not drawn) [BC19908] | ≤ 4.60
CCC1Oc2c(cc(Br)cc2S(=O)(=O)Nc2ccc(C)c(F)c2)N(C)C1=O (stereo not drawn) [BC19923] | ≤ 4.60
CS(=O)(=O)c1cc2c(c(S(=O)(=O)Nc3ccc(F)c(F)c3)c1)OCC(=O)N2 [BC19481] | ≤ 4.60

Compound | pIC50
CC1Oc2c(cc(Br)cc2S(=O)(=O)Nc2ccccc2)N(C)C1=O (stereo not drawn) [BC19789] | ≤ 4.60
CCc1cccc(NS(=O)(=O)c2cc(Br)cc3c2OC(C)C(=O)N3)c1 (stereo not drawn) [BC19288] | 4.60 to 6.00
Cc1c(Cl)cc2c(c1S(=O)(=O)Nc1ccc(OC(F)(F)F)cc1)OCC(=O)N2 [BC19490] | ≤ 4.60
CCS(=O)(=O)c1cc2c(c(S(=O)(=O)Nc3ccc(C(C)C)cc3)c1)OCC(=O)N2 [BC19493] | ≤ 4.60
CS(=O)(=O)c1cc2c(c(S(=O)(=O)Nc3ccc(F)cc3F)c1)OCC(=O)N2 [BC19425] | ≤ 4.60
CCc1ccc(NS(=O)(=O)c2cc3c(cc2Br)NC(=O)C(CC(C)C)O3)cc1 (stereo not drawn) [BC19764] | 4.60 to 6.00
CCC1Oc2cc(S(=O)(=O)Nc3ccc(C(F)(F)F)cc3Cl)c(Br)cc2NC1=O (stereo not drawn) [BC19371] | ≤ 4.60
CCC1Oc2c(cc(Cl)cc2S(=O)(=O)Nc2ccc(OC(F)(F)F)cc2)NC1=O (stereo not drawn) [BC19734] | 4.60 to 6.00
CCC1Oc2c(cc(Br)cc2S(=O)(=O)NC2CCC(O)CC2)NC1=O (stereo not drawn) [BC19378] | 4.60 to 6.00
CCC1Oc2c(cc(Br)cc2S(=O)(=O)Nc2ccc(F)c(F)c2)N(C)C1=O (stereo not drawn) [BC19925] | 4.60 to 6.00
O=C1COc2cc(S(=O)(=O)NCc3ccc(C(F)(F)F)cc3)c(Br)cc2N1 [BC19391] | ≤ 4.60
CC1Oc2c(cc(Cl)cc2S(=O)(=O)Nc2ccc(F)cc2Cl)NC1=O (stereo not drawn) [BC19720] | ≤ 4.60
CCC1Oc2cc(S(=O)(=O)Nc3ccc(C)c(Cl)c3)c(Br)cc2N(C)C1=O (stereo not drawn) [BC19938] | ≤ 4.60
CCC1Oc2cc(S(=O)(=O)Nc3ccc(Cl)cc3)c(Cl)cc2NC1=O (stereo not drawn) [BC19739] | 4.60 to 6.00
Cc1ccc(NS(=O)(=O)c2cc(Cl)cc3c2OC(C)C(=O)N3)cc1 (stereo not drawn) [BC19718] | ≤ 4.60
CS(=O)(=O)c1cc2c(c(S(=O)(=O)Nc3ccc(F)cc3)c1)OCC(=O)N2 [BC19430] | ≤ 4.60
CC(C)c1ccc(NS(=O)(=O)c2cc(Br)cc3c2OCCC(=O)N3)cc1 [BC19687] | ≤ 4.60
Cc1ccc(NS(=O)(=O)c2cc(Cl)cc3c2OC(C)C(=O)N3)cc1F (stereo not drawn) [BC19701] | 4.60 to 6.00

Next, values leading:

pIC50 | Compound
4.60 to 6.00 | CCCNS(=O)(=O)c1cc2c(cc1Br)NC(=O)C(CC)O2 (stereo not drawn) [BC19222]
4.60 to 6.00 | CC1Oc2c(cc(Br)cc2S(=O)(=O)NCc2ccc(OC(F)(F)F)cc2)NC1=O (stereo not drawn) [BC19363]
4.60 to 6.00 | CCc1ccc(NS(=O)(=O)c2cc3c(cc2Cl)NC(=O)C(CC)O3)cc1 (stereo not drawn) [BC19741]
4.60 to 6.00 | Cc1ccc(NS(=O)(=O)c2cc3c(cc2Cl)NC(=O)CO3)cc1Cl [BC19165]
4.60 to 6.00 | CC1Oc2c(cc(Cl)cc2S(=O)(=O)Nc2ccc(C(C)C)cc2)NC1=O (stereo not drawn) [BC19705]
> 6.00 | O=C1COc2cc(S(=O)(=O)Nc3ccccc3)c(Cl)cc2N1 [BC19161]
4.60 to 6.00 | CCC1Oc2cc(S(=O)(=O)Nc3cccc(C(C)=O)c3)c(Cl)cc2NC1=O (stereo not drawn) [BC19282]
4.60 to 6.00 | CC1Oc2cc(S(=O)(=O)NCCc3ccc(OC(F)(F)F)cc3)c(Br)cc2NC1=O (stereo not drawn) [BC19359]
4.60 to 6.00 | O=C1COc2c(cc(Cl)cc2S(=O)(=O)Nc2ccccc2)N1 [BC19168]
4.60 to 6.00 | O=C1CCOc2cc(S(=O)(=O)Nc3ccc(F)cc3F)c(Br)cc2N1 [BC19693]
4.60 to 6.00 | CCc1ccc(NS(=O)(=O)c2cc(Cl)cc3c2OC(C)C(=O)N3)cc1 (stereo not drawn) [BC19703]
4.60 to 6.00 | CC(C)CC1Oc2c(cc(Br)cc2S(=O)(=O)Nc2ccc(F)c(F)c2)NC1=O (stereo not drawn) [BC19759]
4.60 to 6.00 | CCC1Oc2cc(S(=O)(=O)Nc3cccc(Cl)c3)c(Br)cc2NC1=O (stereo not drawn) [BC19221]
4.60 to 6.00 | COCCNC(=O)N1c2cc(S(=O)(=O)N3CCCC3)ccc2NC(=O)C1C (stereo not drawn) [BC19299]
4.60 to 6.00 | CC1Oc2cc(S(=O)(=O)Nc3ccc(F)cc3Cl)c(Cl)cc2NC1=O (stereo not drawn) [BC19719]
4.60 to 6.00 | CCC1Oc2c(cc(Br)cc2S(=O)(=O)Nc2ccc(OC(F)(F)F)cc2)N(C)C1=O (stereo not drawn) [BC19921]

pIC50 | Compound
4.60 to 6.00 | CCC1Oc2c(cc(Cl)cc2S(=O)(=O)Nc2ccc(C)c(Cl)c2)NC1=O (stereo not drawn) [BC19746]
4.60 to 6.00 | COc1ccc(NS(=O)(=O)c2cc3c(cc2Cl)NC(=O)C(C)O3)cc1Cl (stereo not drawn) [BC19280]
4.60 to 6.00 | CCC1Oc2c(cc(Cl)cc2S(=O)(=O)Nc2cccc(Cl)c2)NC1=O (stereo not drawn) [BC19752]
4.60 to 6.00 | COc1ccc(NS(=O)(=O)c2cc(Cl)cc3c2OC(C)C(=O)N3)cc1Cl (stereo not drawn) [BC19292]
4.60 to 6.00 | CCC1Oc2c(cc(Br)cc2S(=O)(=O)NC2CCC(C(C)(C)C)CC2)NC1=O (stereo not drawn) [BC19379]
4.60 to 6.00 | CC1C(=O)Nc2ccc(S(=O)(=O)N3CCCC3)cc2N1C (stereo not drawn) [BC19296]
4.60 to 6.00 | COc1ccc(NS(=O)(=O)c2cc3c(cc2Br)NC(=O)CCO3)cc1Cl [BC19694]
4.60 to 6.00 | CCc1cccc(NS(=O)(=O)c2cc3c(cc2Cl)NC(=O)C(CC)O3)c1 (stereo not drawn) [BC19749]
4.60 to 6.00 | CC1Oc2c(cc(Br)cc2S(=O)(=O)Nc2ccc(OC(F)(F)F)cc2)N(C)C1=O (stereo not drawn) [BC19783]
> 6.00 | CCc1ccc(NS(=O)(=O)c2cc3c(cc2Br)NC(=O)CO3)cc1 [BC19138]
4.60 to 6.00 | CC1Oc2c(cc(Br)cc2S(=O)(=O)N2CCN(C)CC2)NC1=O (stereo not drawn) [BC19228]
> 6.00 | Cc1ccc(NS(=O)(=O)c2cc(Cl)cc3c2OCC(=O)N3)cc1Cl [BC19176]
4.60 to 6.00 | Cc1ccc(Cl)cc1NS(=O)(=O)c1cc(Cl)cc2c1OCC(=O)N2 [BC19170]
4.60 to 6.00 | CCC1Oc2cc(S(=O)(=O)Nc3ccc(C)c(F)c3)c(Cl)cc2NC1=O (stereo not drawn) [BC19212]
> 6.00 | CC1Oc2cc(S(=O)(=O)Nc3ccc(F)cc3)c(Cl)cc2NC1=O (stereo not drawn) [BC19721]
> 6.00 | O=C1COc2cc(S(=O)(=O)Nc3ccc(F)cc3F)c(Br)cc2N1 [BC19166]
